Assays:
Assay type in all cases: in vivo
[1] = system: Smaller Tea Tortrix (Adoxophyes sp.); assay: Insecticidal effect on smaller tea tortrix (Test Example 3): tea leaves immersed in 50 ppm liquid chemical; details: smaller tea tortrix (Adoxophyes sp.) larvae, 8 days after inoculation, 25° C., humidity 70%
Method: Tea leaves were immersed for about 30 seconds in a liquid chemical prepared by diluting a preparation containing each compound listed in Table 1 or 2 as an active ingredient to adjust the concentration to 50 ppm. After air-dryness, the tea leaves were placed in a plastic Petri dish with a diameter of 9 cm and inoculated with larvae of smaller tea tortrix, after which the dish was allowed to stand in a room thermostated at 25° C. and having a humidity of 70%. Eight days after the inoculation, the dead and alive were counted and the insecticidal effect was judged according to the criterion shown in Test Example 1. The test was carried out with triplicate groups of 10 insects.

[2] = system: Common Cutworm (Spodoptera litura); assay: Insecticidal effect on common cutworm (Test Example 2): cabbage leaf piece immersed in 50 ppm liquid chemical; details: common cutworm (Spodoptera litura) second-instar larvae, 8 days after inoculation, 25° C.
Method: A piece of cabbage leaf (cultivar: Shikidori) was immersed for about 30 seconds in a liquid chemical prepared by diluting a preparation containing each compound listed in Table 1 or 2 as an active ingredient to adjust the concentration to 50 ppm. After air-dryness, it was placed in a plastic Petri dish with a diameter of 9 cm and inoculated with second-instar larvae of common cutworm, after which the dish was closed and then allowed to stand in a room thermostated at 25° C. Eight days after the inoculation, the dead and alive were counted. The mortality was calculated according to the following equation and the insecticidal effect was judged according to the criterion shown in Test Example 1. The test was carried out with triplicate groups of 10 insects. [formula]

[3] = system: Diamond Back Moth (Plutella xylostella); assay: Insecticidal effect on diamond back moth (Test Example 1): egg-bearing Chinese cabbage seedling immersed in 50 ppm liquid chemical
Method: Adult diamond back moths were released and allowed to oviposit on a Chinese cabbage seedling. Two days after the release, the seedling having the eggs deposited thereon was immersed for about 30 seconds in a liquid chemical prepared by diluting a preparation containing each compound listed in Table 1 or 2 as an active ingredient to adjust the concentration to 50 ppm. After air-dryness, it was allowed to stand in a room thermostated at 25° C. Six days after the immersion, the hatched insects were counted. The mortality was calculated according to the following equation and the insecticidal effect was judged according to the criterion shown below. The test was carried out with triplicate groups of 10 insects. [formula]

SMILES | Insecticidal effect (mortality grade), Test Example 3 [1] | Insecticidal effect (mortality grade), Test Example 2 [2] | Insecticidal effect (mortality grade), Test Example 1 [3]
COC(=O)N1CCN(S(=O)(=O)CC(C)NC(=O)c2c(I)cccc2C(=O)Nc2ccc(C(F)(C(F)(F)F)C(F)(F)F)cc2C)CC1 (stereo not drawn) [1-66] | A (Mortality 100%) | A (Mortality 100%) | A (Mortality 100%)
Cc1cc(C(F)(C(F)(F)F)C(F)(F)F)ccc1NC(=O)c1cccc(I)c1C(=O)NC(C)CS(=O)(=O)N1CCC(=O)CC1 (stereo not drawn) [1-67] | E (Mortality less than 50%) | E (Mortality less than 50%) | A (Mortality 100%)
Cc1cc(C(F)(C(F)(F)F)C(F)(F)F)ccc1NC(=O)c1cccc(I)c1C(=O)NC(C)CS(=O)(=O)NCCCl (stereo not drawn) [1-71] | A (Mortality 100%) | A (Mortality 100%) | A (Mortality 100%)
Cc1cc(C(F)(C(F)(F)F)C(F)(F)F)ccc1NC(=O)c1cccc(I)c1C(=O)NC(C)CS(=O)(=O)NCCO (stereo not drawn) [1-72] | A (Mortality 100%) | A (Mortality 100%) | A (Mortality 100%)
COCCNS(=O)(=O)CC(C)NC(=O)c1c(I)cccc1C(=O)Nc1ccc(C(F)(C(F)(F)F)C(F)(F)F)cc1C (stereo not drawn) [1-73] | A (Mortality 100%) | A (Mortality 100%) | A (Mortality 100%)
CSCCNS(=O)(=O)CC(C)NC(=O)c1c(I)cccc1C(=O)Nc1ccc(C(F)(C(F)(F)F)C(F)(F)F)cc1C (stereo not drawn) [1-75] | A (Mortality 100%) | A (Mortality 100%) | A (Mortality 100%)
Cc1cc(C(F)(C(F)(F)F)C(F)(F)F)ccc1NC(=O)c1cccc(I)c1C(=O)NC(C)CS(=O)(=O)NCC[S+](C)[O-] (stereo not drawn) [1-76] | A (Mortality 100%) | A (Mortality 100%) | A (Mortality 100%)
Cc1cc(C(F)(C(F)(F)F)C(F)(F)F)ccc1NC(=O)c1cccc(I)c1C(=O)NC(C)CS(=O)(=O)NCCS(C)(=O)=O (stereo not drawn) [1-77] | A (Mortality 100%) | A (Mortality 100%) | A (Mortality 100%)
Cc1cc(C(F)(C(F)(F)F)C(F)(F)F)ccc1NC(=O)c1cccc(I)c1C(=O)NC(C)(C)CS(=O)(=O)NCCO [1-78] | A (Mortality 100%) | E (Mortality less than 50%) | A (Mortality 100%)
COCCNS(=O)(=O)CC(C)(C)NC(=O)c1c(I)cccc1C(=O)Nc1ccc(C(F)(C(F)(F)F)C(F)(F)F)cc1C [1-79] | A (Mortality 100%) | A (Mortality 100%) | A (Mortality 100%)
CSCCNS(=O)(=O)CC(C)(C)NC(=O)c1c(I)cccc1C(=O)Nc1ccc(C(F)(C(F)(F)F)C(F)(F)F)cc1C [1-81] | A (Mortality 100%) | A (Mortality 100%) | A (Mortality 100%)
Cc1cc(C(F)(C(F)(F)F)C(F)(F)F)ccc1NC(=O)c1cccc(I)c1C(=O)NC(C)(C)CS(=O)(=O)NCC[S+](C)[O-] (stereo not drawn) [1-82] | A (Mortality 100%) | A (Mortality 100%) | A (Mortality 100%)
Cc1cc(C(F)(C(F)(F)F)C(F)(F)F)ccc1NC(=O)c1cccc(I)c1C(=O)NC(C)(C)CS(=O)(=O)NCCS(C)(=O)=O [1-83] | A (Mortality 100%) | A (Mortality 100%) | A (Mortality 100%)
CCSCCNS(=O)(=O)CC(C)(C)NC(=O)c1c(I)cccc1C(=O)Nc1ccc(C(F)(C(F)(F)F)C(F)(F)F)cc1C [1-84] | A (Mortality 100%) | A (Mortality 100%) | A (Mortality 100%)
CC[S+]([O-])CCNS(=O)(=O)CC(C)(C)NC(=O)c1c(I)cccc1C(=O)Nc1ccc(C(F)(C(F)(F)F)C(F)(F)F)cc1C (stereo not drawn) [1-85] | A (Mortality 100%) | A (Mortality 100%) | A (Mortality 100%)
CCS(=O)(=O)CCNS(=O)(=O)CC(C)(C)NC(=O)c1c(I)cccc1C(=O)Nc1ccc(C(F)(C(F)(F)F)C(F)(F)F)cc1C [1-86] | A (Mortality 100%) | A (Mortality 100%) | A (Mortality 100%)
Cc1cc(C(F)(C(F)(F)F)C(F)(F)F)ccc1NC(=O)c1cccc(I)c1C(=O)NC(C)(C)CS(=O)(=O)NCCSc1ccccc1 [1-87] | A (Mortality 100%) | A (Mortality 100%) | A (Mortality 100%)
Cc1cc(C(F)(C(F)(F)F)C(F)(F)F)ccc1NC(=O)c1cccc(I)c1C(=O)NC(C)(C)CS(=O)(=O)NCC[S+]([O-])c1ccccc1 (stereo not drawn) [1-88] | A (Mortality 100%) | A (Mortality 100%) | A (Mortality 100%)
Cc1cc(C(F)(C(F)(F)F)C(F)(F)F)ccc1NC(=O)c1cccc(I)c1C(=O)NC(C)(C)CS(=O)(=O)NCCS(=O)(=O)c1ccccc1 [1-89] | A (Mortality 100%) | A (Mortality 100%) | A (Mortality 100%)
CSCC(C)NS(=O)(=O)CC(C)NC(=O)c1c(I)cccc1C(=O)Nc1ccc(C(F)(C(F)(F)F)C(F)(F)F)cc1C (stereo not drawn) [1-91] | A (Mortality 100%) | A (Mortality 100%) | A (Mortality 100%)
Cc1cc(C(F)(C(F)(F)F)C(F)(F)F)ccc1NC(=O)c1cccc(I)c1C(=O)NC(C)CS(=O)(=O)NC(C)C[S+](C)[O-] (stereo not drawn) [1-92] | A (Mortality 100%) | A (Mortality 100%) | A (Mortality 100%)
Cc1cc(C(F)(C(F)(F)F)C(F)(F)F)ccc1NC(=O)c1cccc(I)c1C(=O)NC(C)CS(=O)(=O)NC(C)CS(C)(=O)=O (stereo not drawn) [1-93] | A (Mortality 100%) | A (Mortality 100%) | A (Mortality 100%)
CSCC(C)(C)NS(=O)(=O)CC(C)NC(=O)c1c(I)cccc1C(=O)Nc1ccc(C(F)(C(F)(F)F)C(F)(F)F)cc1C (stereo not drawn) [1-94] | A (Mortality 100%) | A (Mortality 100%) | A (Mortality 100%)
Cc1cc(C(F)(C(F)(F)F)C(F)(F)F)ccc1NC(=O)c1cccc(I)c1C(=O)NC(C)CS(=O)(=O)NC(C)C(N)=O (stereo not drawn) [1-103] | A (Mortality 100%) | A (Mortality 100%) | A (Mortality 100%)
CCNC(=O)C(C)NS(=O)(=O)CC(C)NC(=O)c1c(I)cccc1C(=O)Nc1ccc(C(F)(C(F)(F)F)C(F)(F)F)cc1C (stereo not drawn) [1-104] | A (Mortality 100%) | A (Mortality 100%) | A (Mortality 100%)
CCN(CC)C(=O)CNS(=O)(=O)CC(C)NC(=O)c1c(I)cccc1C(=O)Nc1ccc(C(F)(C(F)(F)F)C(F)(F)F)cc1C (stereo not drawn) [1-105] | E (Mortality less than 50%) | A (Mortality 100%) | A (Mortality 100%)
Cc1cc(C(F)(C(F)(F)F)C(F)(F)F)ccc1NC(=O)c1cccc(I)c1C(=O)NC(C)CS(=O)(=O)Nc1ccccc1 (stereo not drawn) [1-106] | E (Mortality less than 50%) | E (Mortality less than 50%) | A (Mortality 100%)
Cc1cc(C(F)(C(F)(F)F)C(F)(F)F)ccc1NC(=O)c1cccc(I)c1C(=O)NC(C)CS(=O)(=O)Nc1ccccc1F (stereo not drawn) [1-107] | A (Mortality 100%) | C (Mortality 89–80%) | A (Mortality 100%)
